Laboratory results taken from paper PMC3904085 (Frontiers in Neuroscience, 2014).
Entries after “also recorded” stand apart in the source; their conditions may differ.

Key:
[1] = test system: mice lacking OX2 receptors; assay: DRL 36-s schedule of reinforcement in OX2 KO mice; type: in vivo, mouse; settings: for Lever Presses Mean / Reinforcers Mean: OX2 KO mice DRL-36-s, raw data; for Lever presses emitted / Reinforcers received: mice lacking OX2 receptors, DRL-36-s
From the text: (§1) Rats were acclimated to housing conditions for 4 days, followed by sham dosing once daily for 3 days, prior to the experiment. For DRL experiments, male Sprague–Dawley rats weighing between 300 and 350 g at the beginning of the behavioral experiments (Holtzman, Madison, WI) were housed in pairs. For mouse DRL studies, male C57Bl/6 mice (Taconic Farms, Hudson, NY) or mice lacking either OX1 or OX2 receptors, around 8 weeks of age, were obtained from private breeding colonies at Taconic Farms (Hudson, NY). OX1 and OX2 receptor knockout mice were generated using in vitro fertilization of embryos in C57Bl/6 female mice with sperm harvested from male mice obtained from the University of Texas Southwestern Medical Center (Dallas, TX), and backcrossed for at least 10 generations. Mice and rats were housed in separate colony rooms, which were maintained at 22°C and 60% relative humidity. For rat DRL experiments, water was available for a 20-min period following the daily behavioral session. Based on recommendations from the animal care and use committee, the mouse DRL assay was developed using food deprivation rather than water deprivation. […] All experiments were conducted during the light cycle and in compliance with the Guide for the Care and Use of Laboratory Animals under protocols approved by a local animal care and use committee.
(§2) The levers in these chambers were mounted on one wall with an adjacent food magazine next to the lever in the middle of the wall. A reinforced response caused a clicker apparatus to activate and the pellet feeder to deposit one 45-mg sucrose pellet (BioServ, Frenchtown, NJ) into the food magazine. The house light, which was mounted on the ceiling, was turned on when the session began, remained on throughout the entire session, and was turned off at the end of the session. Each experimental chamber was enclosed in a melamine sound-attenuating cubicle and equipped with a white noise generator to provide masking noise.
(§3) Each mouse was initially trained under a variable time 60-s operant schedule for 5 days, followed by fixed ratio-1 ratio schedule for 5 days. After the mice had acquired lever-pressing behavior, they were trained during daily DRL 6-s sessions for ~1 week, then mice progressed through weekly ascending DRL requirements (12, 18, 24, 30 s) before moving to DRL 36-s sessions. […] Experimental sessions lasted for 45 min and were conducted 5 days/week during light hours.
(§4) Drugs were administered to the animals once or twice weekly with at least 1 week between subsequent drugs to minimize possible carryover effects. Drug treatments were administered on Tuesdays and Fridays. No treatments were administered on other test days. Wednesdays were control days. “Control” behavior was calculated as the pooled mean lever presses or reinforcers received during Wednesday sessions across all Wednesdays for the duration of each study. Performance was normalized to percent of control by dividing total responses (or reinforcers) for each drug or vehicle treatment by the mean number of responses (reinforcers) in the respective pooled control condition, multiplied by 100.
(§5) The data analyses were conducted on the raw response and reinforcement data. All behavioral data are expressed as the mean ± s.e.m. normalized to the control condition.

[2] = test system: C57Bl/6 mice; assay: DRL 36-s schedule of reinforcement in wild-type mice; type: in vivo, mouse; settings: for Lever Presses Mean / Reinforcers Mean: WT mice DRL-36-s, raw data
From the text: as §2, §3, §4, §5

[3] = test system: Sprague–Dawley rats; assay: DRL 72-s schedule of reinforcement in rats; type: in vivo, rat; settings: for Lever Presses Mean / Reinforcers Mean: HSD rats DRL-72-s, raw data
From the text: Each chamber was enclosed in a melamine sound-attenuating cubicle. A white noise generator provided masking noise. The interior of each chamber consisted of three levers mounted on one wall with a house light mounted on the opposite wall. The house light was turned on at initiation of each test session and was turned off at the termination of each session. A water access port was situated next to the lever in the middle of the wall, wherein a reinforced response caused a clicker apparatus to sound paired with a dipper (0.02-ml cup) to be lifted from a water trough to an opening in the floor of the access port for 4 s.
Rats were initially trained under an alternative fixed ratio 1 water reinforcement schedule with a fixed 1-min time schedule for automatic reinforcement. Thus, each response was reinforced, with water also provided every minute in the absence of a response. […] Following acquisition of lever-pressing behavior, rats were trained daily on DRL 18-s sessions for ~2 weeks, following which they were advanced to DRL 72-s sessions. Responding on these sessions became stable after ~8 weeks. Experimental test sessions lasted for 1 h and were conducted 5 days/week during light hours.
as §4, §5

[4] = test system: mice lacking OX1 receptors; assay: DRL 36-s schedule of reinforcement in OX1 KO mice; type: in vivo, mouse; settings: for Lever Presses Mean / Reinforcers Mean: OX1 KO mice DRL-36-s, raw data; for Lever presses emitted / Reinforcers received: DRL-36-s
From the text: as §1, §2, §3, §4, §5

[5] = test system: c-Fos protein in rat medial prefrontal cortex; assay: Restraint-stress-induced c-Fos activation (ELISA); settings: 3 mg/kg IP 30 min before 20 min restraint, 3 mg/kg
Description: Thirty min later, rats were restrained in a rigid plastic flat-bottom restraint tube (Braintree Scientific, Inc.; Braintree, MA, USA) for 20 min. After the 20 min stress period, rats were moved to a new cage and housed individually. Rats were sacrificed 2 h after stress onset. […] Immediately after sacrifice, brains were removed, the medial prefrontal cortex (mPFC), a brain area implicated in the pathophysiology of depression, was dissected from both hemispheres and frozen in 1.5 ml centrifuge tubes in dry ice, and stored at −80°C for later analysis.
Frozen mPFC tissues were removed from the −80°C freezer and placed on ice. Tissue was homogenized with a dounce homogenizer. The nuclear extract was prepared from the homogenized samples as per manufacturer's instructions using a CHEMICON ®Nuclear Extraction Kit (Millipore; Billerica, MA, USA). Protein concentrations were determined in the nuclear extracts using the Pierce BCA Protein Assay kit (Pierce Biotechnology, Inc., Rockford, IL, USA). Nuclear fractions were then assayed for Fos protein levels using the Pierce c-Fos Transcription Factor Kit (Pierce Biotechnology, Inc., Rockford, IL, USA), according to the manufacturer's instructions. […] Data were analyzed and plotted using GraphPad Prism (GraphPad Software, Inc.; La Jolla, CA, USA).

[6] = mice lacking OX1 receptors, 20 mg/kg
[7] = 10 mg/kg, positive control in the SB334867 experiment
[8] = rats DRL-72-s, 10 mg/kg, normalized to control days
[9] = rats DRL-72-s, 10 mg/kg, positive control in the SB334867 experiment
[10] = mice lacking OX1 receptors, 15 mg/kg

With `Cc1nc2ccc(NC(=O)Nc3ccnc4cccnc34)cc2o1` [SB334867] the “Lever Presses Mean” value ([1]; dose 1 mg/kg) was 175.50, the “Reinforcers Mean” value ([1]; dose 1 mg/kg) was 19.50 and the “Lever Presses Mean” value ([1]; dose 3 mg/kg) was 155.75. For the same compound, the “Reinforcers Mean” value ([1]; dose 3 mg/kg) was 21.50, the “Lever Presses Mean” value ([1]; dose 10 mg/kg) was 167.75 and the “Reinforcers Mean” value ([1]; dose 10 mg/kg) was 22.75. For the same compound, the “Lever Presses Mean” value ([1]; dose 20 mg/kg) was 149.50, the “Reinforcers Mean” value ([1]; dose 20 mg/kg) was 26.25 and the “Lever Presses Mean” value ([1]; dose 40 mg/kg) was 27.38. The “Reinforcers Mean” value ([1]; dose 40 mg/kg) was 17.50, the Lever presses emitted ([1]; 40 mg/kg) was “less than 20 % of control” and the Reinforcers received ([1]; 40 mg/kg) was 75 % of control. For the same compound, the “Effect on lever presses emitted or reinforcers received, in words” value ([2]; C57Bl/6 mice DRL-36-s, up to 40 mg/kg) was “did not significantly affect”, the “Lever Presses Mean” value ([2]; dose 3 mg/kg) was 162.86 and the “Reinforcers Mean” value ([2]; dose 3 mg/kg) was 17.14. The “Lever Presses Mean” value ([2]; dose 10 mg/kg) was 157.57, the “Reinforcers Mean” value ([2]; dose 10 mg/kg) was 16.14 and the “Lever Presses Mean” value ([2]; dose 20 mg/kg) was 148.57. The “Reinforcers Mean” value ([2]; dose 20 mg/kg) was 18.43, the “Lever Presses Mean” value ([2]; dose 40 mg/kg) was 87.67 and the “Reinforcers Mean” value ([2]; dose 40 mg/kg) was 22.33. For the same compound, the “Lever Presses Mean” value ([3]; dose 3 mg/kg) was 76.57, the “Reinforcers Mean” value ([3]; dose 3 mg/kg) was 11.00 and the “Lever Presses Mean” value ([3]; dose 10 mg/kg) was 70.71. For the same compound, the “Reinforcers Mean” value ([3]; dose 10 mg/kg) was 12.43, the “Lever Presses Mean” value ([3]; dose 30 mg/kg IP) was 71.86 and the “Reinforcers Mean” value ([3]; dose 30 mg/kg IP) was 11.00. The “Change in reinforcers received or total lever presses made, in words” value ([3]; rats DRL-72-s, doses up to 30 mg/kg) was “did not produce a significant change”, the “Lever Presses Mean” value ([4]; dose 1 mg/kg) was 209.75 and the “Reinforcers Mean” value ([4]; dose 1 mg/kg) was 15.00. The “Lever Presses Mean” value ([4]; dose 3 mg/kg) was 169.00, the “Reinforcers Mean” value ([4]; dose 3 mg/kg) was 23.88 and the “Lever Presses Mean” value ([4]; dose 10 mg/kg) was 163.63. For the same compound, the “Reinforcers Mean” value ([4]; dose 10 mg/kg) was 22.88, the “Lever Presses Mean” value ([4]; dose 20 mg/kg) was 141.88 and the “Reinforcers Mean” value ([4]; dose 20 mg/kg) was 28.75. For the same compound, the “Lever Presses Mean” value ([4]; dose 40 mg/kg) was 68.13, the “Reinforcers Mean” value ([4]; dose 40 mg/kg) was 21.38 and the Lever presses emitted [4, 6] was 75 % of control. For the same compound, the Reinforcers received [4, 6] was 166 % of control, the Lever presses emitted ([4]; mice lacking OX1 receptors, 40 mg/kg) was 35 % of control and the Reinforcers received ([4]; mice lacking OX1 receptors, 40 mg/kg, not significant) was 123%.
`Cc1nnc2n1-c1ccc(Cl)cc1C(c1ccccc1)=NC2` [alprazolam] was tested, and the “Effect on restraint stress-induced increase in c-fos expression in prefrontal cortex” value [5] was “attenuated; also recorded: blocked”.
`CN(C)CCCN1c2ccccc2CCc2ccccc21` [imipramine] was tested, and the “Lever Presses Mean” value ([1]; dose 10 mg/kg) was 165.25, the “Reinforcers Mean” value ([1]; dose 10 mg/kg) was 27.88 and the “Lever Presses Mean” value ([1]; dose 15 mg/kg) was 116.88. The “Reinforcers Mean” value ([1]; dose 15 mg/kg) was 33.00, the Lever presses emitted ([1]; 15 mg/kg) was 70 % of control and the Reinforcers received ([1]; 15 mg/kg) was 140 % of control. The “Lever Presses Mean” value ([3]; 10 mg/kg, positive control in the LSN2424100 experiment) was 55.71, the “Lever Presses Mean” value [3, 7] was 49.00 and the “Reinforcers Mean” value [3, 7] was 18.57. The “Lever Presses Mean” value ([3]; dose 1 mg/kg) was 77.50, the “Reinforcers Mean” value ([3]; dose 1 mg/kg) was 9.92 and the “Lever Presses Mean” value ([3]; dose 3 mg/kg) was 68.42. The “Reinforcers Mean” value ([3]; dose 3 mg/kg) was 15.17, the “Lever Presses Mean” value ([3]; dose 10 mg/kg) was 46.17 and the “Reinforcers Mean” value ([3]; dose 10 mg/kg) was 20.33. For the same compound, the Reinforcers received [3, 8] was 210 % of control, the “Total lever presses emitted” value [3, 8] was 51 % of control and the Lever presses [3, 9] was 64 % of control. For the same compound, the Reinforcers received [3, 9] was 160 % of control, the “Effect on DRL behavior (lever presses, reinforcers), in words” value ([3]; rats DRL-72-s, doses of 1 and 3 mg/kg) was “no significant effect on behavior” and the “Lever Presses Mean” value ([4]; dose 3 mg/kg) was 177.63. For the same compound, the “Lever Presses Mean” value ([4]; dose 10 mg/kg) was 174.13, the “Reinforcers Mean” value ([4]; dose 10 mg/kg) was 24.25 and the “Lever Presses Mean” value ([4]; dose 15 mg/kg) was 128.50. For the same compound, the “Reinforcers Mean” value ([4]; dose 15 mg/kg) was 31.13, the Lever presses emitted [4, 10] was 63 % of control and the Reinforcers received [4, 10] was 206 % of control. The “Effect on lever pressing, in words” value ([4]; mice lacking OX1 receptors, doses lower than 15 mg/kg) was “did not affect lever pressing”.
